# Experimental data reported in ChEMBL document CHEMBL1151212, “Ananosic acids B and C, two new 18(13-->12)-abeo-lanostane triterpenoids from Kadsura ananosma” (J Nat Prod, 2004).
# Tested on: CCRF-CEM
# Experiment: Cytotoxicity against human CCRF-CEM cells assessed as cell viability
# Type: functional, cell-based
row,Compound,IC50
1,C=C1C[C@H]2C(=CC[C@H]3C(C)(C)C(=O)CC[C@]23C)[C@]2(C)CC[C@H]([C@H](C)CC/C=C(/C)C(=O)O)C12 (stereo partly specified) [ANANOSIC ACID C],45.2 µg/mL
2,C=C1C[C@H]2C(=CC[C@H]3C(C)(C)[C@H](OC(C)=O)CC[C@]23C)[C@]2(C)CC[C@H]([C@H](C)CC/C=C(/C)C(=O)O)C12 (stereo partly specified) [ANANOSIC ACID B],49.6 µg/mL
3,C/C(=C/CC[C@@H](C)C1=C2C(C)C[C@H]3C(=CC[C@H]4C(C)(C)[C@H](O)CC[C@]34C)[C@]2(C)CC1)C(=O)O (stereo partly specified) [ANANOSIC ACID A],45.4 µg/mL

# Tested on: HeLa
# Experiment: Cytotoxicity against human HeLa cells assessed as cell viability
# Type: functional, cell-based
row,Compound,IC50
1,C=C1C[C@H]2C(=CC[C@H]3C(C)(C)C(=O)CC[C@]23C)[C@]2(C)CC[C@H]([C@H](C)CC/C=C(/C)C(=O)O)C12 (stereo partly specified) [ANANOSIC ACID C],0.48 µg/mL
2,C=C1C[C@H]2C(=CC[C@H]3C(C)(C)[C@H](OC(C)=O)CC[C@]23C)[C@]2(C)CC[C@H]([C@H](C)CC/C=C(/C)C(=O)O)C12 (stereo partly specified) [ANANOSIC ACID B],0.54 µg/mL
3,C/C(=C/CC[C@@H](C)C1=C2C(C)C[C@H]3C(=CC[C@H]4C(C)(C)[C@H](O)CC[C@]34C)[C@]2(C)CC1)C(=O)O (stereo partly specified) [ANANOSIC ACID A],0.46 µg/mL
